Measured values taken from patent US9498505B2, “Embelia concinna extract comprising flavonoids in cosmetic and pharmaceutical compositions” (BAYER CONSUMER CARE AG, priority 2012, dated 2016).
Several values for one entry are separate records, joined by “and”; a condition that tells them apart may be missing. Identical values can stand only once.

Columns and labels:
[1] = tested on: human neutrophils; test: LTB4 release by neutrophils stimulated with opsonised zymosan (ELISA); format: cell-based
Method: (§1) The purpose of this study is the evaluation of the dry Embelia extract on the production of LTB4 (leucotriens B4) and PGE-2 (prostaglandin E-2) in human neutrophils. Venous blood from healthy donors was collected into tubes containing anticoagulant and sedimented with Dextran (Dextran T500). The supernatant was layered on Ficoll-Hypaque (density 1,077) and centrifuged at 400 g for 20 min. The cell pellet was washed in Tyrode (in mM: NaCl 137; KCl 2.6; glucose 5.6; HEPES 4.2; pH 7.4). Contaminating red blood corpuscules were lyzed. The cells were resuspended at 2.106 cells/ml in the Tyrode buffer supplemented with CaCl2 and MgCl2 (1.3 and 1 mM, respectively). Cells (2.106 cells/ml) were incubated at 37° C. in the presence or absence of the products to be tested during 15 min and then stimulated with opsonised zymosan (1 mg/ml) during 10 min. LTB4 assay was performed using a kit ELISA (Thermo Fisher ref. EHL LTB4). The quantity of LTB4 was expressed in pg/ml. PGE2 assay was performed using a kit ELISA (Assay designs ref 900-001 and SPIBIO ref 514010). The quantity of PGE2 was expressed in pg/ml. Data represent the means of values measured in one supernatant (non stimulated cells) or three supernatants (stimulated cells). Each measurement was assessed in duplicate. The means of the data were compared to the control condition (Student's t test-comparison of means—statistical significance at 95% if p<0.05* and at 99% if p<0.01**). The percentage of inhibition was calculated as follows: % inhibition=100×[(LTB4 treated with ECC (stimulated)/LTB4 control (stimulated)×100]

[2] = tested on: sensory neurons from dorsal root ganglia; test: CGRP release induced by capsaicin in sensory neurons (ELISA); format: cell-based, newborn Wistar rat
Method: FIG. 4: Evaluation by Elisa assay of CGRP release. Protocol: in vitro test on sensory neurons, Sensory neurons from dorsal root ganglia of newborn Wistar rat, pre-treatment with Embelia extract for 30 min, stimulation with capsaicin (0.3 μM) for 30 min, tested vs capsazepine (30 μM) as standard reference.
(§2) Test was performed with liquid Embelia extract according to example 1 to measure its activity on release of substance P or CGRP induced by capsaicin in sensory neurons models. Cells were isolated from dorsal root ganglia of newborn Wistar rat. Cells were cultured at 37° C., 5% CO2 and culture medium concerned DMEM-Ham F12 supplemented with N2 complement 1%, antibiotics, L-glutamine 2 mM, nerve growth factor beta 20 ng/ml, neutrophin 5 ng/ml.
(§3) Sensory neurons were then seeded in culture medium containing or not containing (control) the test compound or the reference (capsazepine at 30 μM) and cells were pre-incubated for 30 minutes. Cells were then stimulated or not stimulated (non-stimulation control) with capsaicin (a pungent and irritating agent from hot chili pepper) at 0.3 μM and incubated for 30 minutes. All experimental conditions were performed in n=3. At the end of incubation, the quantity of neuromediators (Substance P or CGRP) in culture supernatants was measured using respective ELISA kit according to the supplier's instructions. The inter-group comparisons were performed by Student's t-test for data management.
(§4) Results are expressed in % according to the following formulas: […]

[3] = tested on: sensory neurons from dorsal root ganglia; test: Viability (MTT) of sensory neurons; format: cell-based, newborn Wistar rat; conditions: Capsazepine 30 μM
Method: A preliminary cytotoxicity test to select doses for further assay was performed with viability test (MMT assay).

[4] = tested on: sensory neurons from dorsal root ganglia; test: Substance P release induced by capsaicin in sensory neurons (ELISA); format: cell-based, newborn Wistar rat
Method: FIG. 3: Evaluation by Elisa assay of substance P release. Protocol: in vitro test on sensory neurons, sensory neurons from dorsal root ganglia of newborn Wistar rat, pre-treatment with Embelia extract for 30 min, stimulation with capsaicin (0.3 μM) for 30 min, tested vs capsazepine (30 μM) as standard reference.
as §2, §3, §4

[5] = tested on: mast cells (Peritoneal cells from Wistar rat including ~50% mast cells); test: Histamine release from mast cells after CP48/80-induced degranulation (ELISA); format: cell-based
Method: FIG. 2: Evaluation by Elisa assay of histamine release after induced mast cells degranulation. Protocol: in vitro test on mast murine cells, peritoneal cells from Wistar rat including ˜50% mast cells, re-treatment with Embelia extract for 15 min, stimulation with CP48/80 (10 μg/ml) for 20 min, tested vs cromoglycate (10 nM) as standard reference. Test was performed with liquid Embelia extract according to example 1 comprising 7.3% dry matter to measure its activity on degranulation of mast cells (Peritoneal cells from Wistar rat including ˜50% mast cells) stimulated with CP48/80. Effects on degranulation were evaluated by measuring histamine release after stimulation. Cells were cultured at 37° C., 5% CO2 and culture medium concerned EBSS supplemented with CaCl2 1.8 mM, MgCl2 0.8 mM and Bovine serum albumine (BSA) 0.1%. Mast cells were seeded in culture medium containing or not containing (control) the test compound or the reference (cromoglycate at 10 mM) and cells were pre-incubated for 20 minutes. Cells were then stimulated or not stimulated (non-stimulation control) with histamine release inducer CP48/80 at 10 μg/ml and incubated for 20 minutes. All experimental conditions were performed in n=3. At the end of incubation, the quantity of histamine in culture supernatants was measured using an ELISA kit according to the supplier's instructions. The inter-group comparisons were performed by Student's t-test for data management. Results are expressed in % according to the following formulas: [formula]

[6] = tested on: human basophils (KU812 cell line); test: Histamine release from KU812 basophils after CP48/80-induced degranulation (ELISA); format: cell-based
Method: FIG. 1: Evaluation by Elisa assay of histamine release after induced basophils degranulation. Protocol: in vitro test on human basophils (KU812 cell line), pre-treatment with Embelia extract for 20 min, stimulation with CP48/80 (10 μg/ml) for 20 min, tested vs cromoglycate (10 nM) as standard reference. Test was performed on liquid Embelia extract according to example 1 to measure its activity on degranulation of human basophils (KU812 cell line) stimulated with CP48/80. Effects on degranulation were evaluated by measuring histamine release after stimulation. Cells were cultured at 37° C., 5% CO2 and culture medium concerned EBSS supplemented with CaCl2 1.8 mM, MgCl2 0.8 mM and Bovine serum albumine (BSA) 0.1%. KU812 cells were then seeded in culture medium containing or not (control) the test compound or the reference (cromoglycate at 10 mM) and cells were pre-incubated for 20 minutes. Cells were then stimulated or not (non-stimulated control) with histamine release inducer CP48/80 at 10 μg/ml and incubated for 20 minutes. All experimental conditions were performed in n=3. At the end of incubation, the quantity of histamine in culture supernatants was measured using an ELISA kit according to the supplier's instructions. The inter-group comparisons were performed by Student's t-test for data management. Results are expressed in % according to the following formulas: [formula] [formula]

[7] = tested on: human neutrophils; test: PGE2 release by neutrophils stimulated with opsonised zymosan (ELISA); format: cell-based; conditions: for PGE2: Indomethacin 1 μM
Method: as §1, with “p<0.01**).” for “p<0.01**). The percentage of inhibition was calculated as follows: % inhibition=100×[(LTB4 treated with ECC (stimulated)/LTB4 control (stimulated)×100]”

[8] = Capsazepine 30 μM, capsaicin (0.3 μM)
[9] = Rattus norvegicus, Neuron, Capsazepine 30 μM, capsaicin (0.3 μM)
[10] = individual values, Capsazepine 30 μM, capsaicin (0.3 μM)
[11] = Cromoglycate 10 mM, CP48/80 at 10 μg/ml

`C[C@H]1[C@H](C)CC[C@]2(C)CC[C@]3(C)C(=CC[C@@H]4[C@@]5(C)CC[C@@H](O)[C@](C)(C(=O)O)[C@@H]5CC[C@]43C)[C@H]12` [Boswellic acid] was tested, and the inhibition at 10 µg/mL ([1]; Homo sapiens, Neutrophil, Boswellic acid 10 μg/ml, positive control) was 45%.
For `Oc1cc2c(cc1O)CN(C(=S)NCCc1ccc(Cl)cc1)CCC2` [Capsazepine], the “Mean CGRP” value [2, 8] was 642 pg/mL, the “Stimulated Control (%)” value [2, 8] was 39% and the inhibition at 30 µM [2, 9] was 64%. For the same compound, the “effect on capsaicin-stimulated CGRP release” value ([2]; capsazepine 30 μM) was “significantly inhibited this effect”, the “CGRP” value [2, 10] was 671 pg/mL and 698 pg/mL and 557 pg/mL and the “Viability (MTT) % Stimulated Control” value ([3]; Table 6 (substance P experiment)) was 96%. The “Viability (MTT) Stimulated Control (%)” value ([3]; Table 7 (CGRP experiment)) was 114%, the “% Stimulated Control (%)” value [4, 8] was 9% and the “Mean Substance P” value [4, 8] was 23 pg/mL. The inhibition at 30 µM [4, 9] was 99%, the “effect on capsaicin-stimulated substance P release” value ([4]; capsazepine 30 μM) was “significantly inhibited this effect” and the “Substance P” value [4, 10] was 23 pg/mL.
With `O=C(O)c1cc(=O)c2c(OCC(O)COc3cccc4oc(C(=O)O)cc(=O)c34)cccc2o1` [Cromoglycate] the “Inhibition (%)” value [5, 11] was 81%, the “Mean Histamine” value [5, 11] was 11.7 µM and the “Stimulated Control (%)” value [5, 11] was 20%. For the same compound, the “effect on CP48/80-stimulated histamine release” value ([5]; cromoglycate 10 mM) was “significantly inhibited this effect”, the “Inhibition (%)” value [6, 11] was 42% and the “Mean Histamine” value [6, 11] was 29.5 nM. For the same compound, the “Stimulated Control (%)” value [6, 11] was 71%, the “effect on CP48/80-stimulated histamine release” value ([6]; cromoglycate 10 mM) was “significantly inhibited this effect” and the “Histamine” value ([6]; individual values, Cromoglycate 10 mM, CP48/80 at 10 μg/ml) was 32.3 nM and 27.0 nM and 29.0 nM.
With `COc1ccc2c(c1)c(CC(=O)O)c(C)n2C(=O)c1ccc(Cl)cc1` [Indomethacin] the “inhibition of PGE2 release” value ([7]; Indometacin 1 μM, positive control) was 51%, the “PGE2” value ([7]; (NS) not stimulated) was 60 pg/mL and the “PGE2” value ([7]; (S) stimulated with opsonised zymosan) was 77.0 pg/mL.
With `Cc1ncc([N+](=O)[O-])n1CCO` [Metronidazole] the inhibition at 5 µg/mL ([1]; Homo sapiens, Neutrophil, metronidazole 5 μg/ml, positive control) was 100% and the “LTB4” value ([1]; Metronidazole (10 μg/ml), (S) stimulated with opsonised zymosan) was 530 pg/mL.
